In one experiment the target is T1, RAMP3-CLR (AM2 receptor) (Homo sapiens, UniProt O60896+Q16602).
T1 construct: FLAG; expressed in transfected cells; host or cells: HEK-293 or HEK-293S cells, transient transfection, 1:1 RAMP:CLR
Nature of the experiment: S. cerevisiae growth assay, GPA1/Gαi chimera, RAMP3 + CLR. The experiment is classed as cell-based. The conditions noted are these: percentage of yeast strain MMY11 (lacking GPA1); 20 h; mean ± S.E., n = 7. The protocol:
(§1) FIGURE 3. […] Reporter gene activity was determined following 20 h of stimulation.
(§2) General yeast procedures were performed as described previously ([22], [24]). The human CLR was introduced into yeast cells under the control of the PGK promoter using a plasmid containing ura3 (pDT-PGK). The three human RAMPs were introduced into yeast under the control of the GAPDH promoter using plasmids containing leu2 (p425-GPD) ([25]). S. cerevisiae dual reporter strains expressing chimeras of yeast GPA1(1–467) (GPA1/Gα) with the five C-terminal amino acids of […] human G proteins representing Gαs, Gα16, Gαq, Gαo, Gαi1/2, Gαi3, Gαz, Gα12, Gα13, and Gα14 (MMY84–MMY93) were used in this study ([52]). […] Receptor signaling was measured using the yeast growth assay as described previously ([24]). […] A fluorescein signal was detected as an increase in fluorescence (excitation wavelength = 485 nm, emission wavelength = 535 nm) as a measure of growth. Different concentrations of ligand (0.01 nM–100 μM) were assayed using 96-well plates, and fluorescence was detected using a Tecan Infinite M200 microplate reader (Tecan Ultra Evolution, Reading, UK) or a Mithras LB 940 microplate reader (Berthold Technologies, Harpenden, UK) for 20 h. […]

In experiment [1] the target is T2, RAMP1-CLR (CGRP receptor) (Homo sapiens, UniProt O60894+Q16602).
T2 construct: FLAG; expressed in transfected cells; host or cells: HEK-293 or HEK-293S cells, transient transfection, 1:1 RAMP:CLR
T2 sequence (Q16602 23-461): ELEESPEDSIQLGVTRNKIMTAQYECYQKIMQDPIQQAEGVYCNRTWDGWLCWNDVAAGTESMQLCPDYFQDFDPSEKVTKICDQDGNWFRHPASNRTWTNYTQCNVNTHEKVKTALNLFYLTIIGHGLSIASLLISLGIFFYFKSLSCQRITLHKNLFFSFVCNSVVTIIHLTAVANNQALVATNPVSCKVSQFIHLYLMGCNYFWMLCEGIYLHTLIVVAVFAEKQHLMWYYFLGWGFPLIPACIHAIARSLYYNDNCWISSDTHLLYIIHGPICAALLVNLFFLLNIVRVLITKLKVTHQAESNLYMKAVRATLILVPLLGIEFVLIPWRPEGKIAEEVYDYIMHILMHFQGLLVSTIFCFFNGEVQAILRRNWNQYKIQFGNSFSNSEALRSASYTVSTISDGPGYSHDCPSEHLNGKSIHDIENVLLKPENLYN
T2 sequence (O60894 27-148): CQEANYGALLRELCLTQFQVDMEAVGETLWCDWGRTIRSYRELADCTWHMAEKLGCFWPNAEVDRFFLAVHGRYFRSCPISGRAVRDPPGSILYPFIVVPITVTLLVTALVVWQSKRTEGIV
Nature of the experiment: S. cerevisiae growth assay, GPA1/Gαi chimera, RAMP1 + CLR. Format: cell-based. The conditions noted are these: percentage of yeast strain MMY11 (lacking GPA1); 20 h; mean ± S.E., n = 6. The protocol:
as §1, §2

T1 sequence (Q16602 23-461): as the sequence (Q16602 23-461) above
T1 sequence (O60896 24-148): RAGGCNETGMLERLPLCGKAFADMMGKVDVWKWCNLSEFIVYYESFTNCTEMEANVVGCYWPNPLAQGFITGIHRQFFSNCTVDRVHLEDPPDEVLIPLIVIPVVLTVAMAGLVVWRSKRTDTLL

On to `CSCC[C@H](NC(=O)[C@H](CC(C)C)NC(=O)[C@H](CCC(N)=O)NC(=O)[C@H](Cc1c[nH]c2ccccc12)NC(=O)[C@H](CC(C)C)NC(=O)[C@H](CCCNC(=N)N)NC(=O)[C@H](Cc1c[nH]cn1)NC(=O)[C@H](CO)NC(=O)[C@H](CC(C)C)NC(=O)[C@H](CC(N)=O)NC(=O)[C@H](CCC(N)=O)NC(=O)[C@@H](NC(=O)[C@H](CCC(N)=O)NC(=O)[C@@H]1CSSC[C@H](NC(=O)CNC(=O)[C@@H](NC(=O)[C@H](CCCNC(=N)N)NC(=O)[C@H](CC(C)C)NC(=O)[C@H](CC(C)C)NC(=O)[C@H](CCC(N)=O)NC(=O)[C@H](C)NC(=O)[C@H](CCC(N)=O)NC(=O)[C@@H](N)[C@@H](C)O)C(C)C)C(=O)N[C@@H](C(C)C)C(=O)N[C@@H](CC(C)C)C(=O)NCC(=O)N[C@@H]([C@@H](C)O)C(=O)N1)C(C)C)C(=O)NCC(=O)N1CCC[C@H]1C(=O)N[C@@H](C)C(=O)NCC(=O)N[C@@H](CCCNC(=N)N)C(=O)N[C@@H](CCC(N)=O)C(=O)N[C@@H](CC(=O)O)C(=O)N[C@@H](CO)C(=O)N[C@@H](C)C(=O)N1CCC[C@H]1C(=O)N[C@H](C(=O)N[C@@H](CC(=O)O)C(=O)N1CCC[C@H]1C(=O)N[C@@H](CO)C(=O)N[C@@H](CO)C(=O)N1CCC[C@H]1C(=O)N[C@@H](Cc1c[nH]cn1)C(=O)N[C@@H](CO)C(=O)N[C@@H](Cc1ccc(O)cc1)C(N)=O)C(C)C` [AM2, adrenomedullin 2], for which the Emax on RAMP3-CLR (AM2 receptor) was 15.7 ± 2.1%; in experiment [1], 41.5 ± 3.3%.
Turning to `CC[C@H](C)[C@H](NC(=O)[C@H](CCC(N)=O)NC(=O)[C@H](Cc1c[nH]cn1)NC(=O)[C@H](C)NC(=O)[C@H](CC(C)C)NC(=O)[C@H](CCCCN)NC(=O)[C@H](CCC(N)=O)NC(=O)[C@@H](NC(=O)[C@@H](NC(=O)[C@@H]1CSSC[C@H](NC(=O)CNC(=O)[C@H](Cc2ccccc2)NC(=O)[C@H](CO)NC(=O)[C@H](CCCNC(=N)N)NC(=O)[C@H](CC(C)C)NC(=O)CNC(=O)[C@H](CCC(N)=O)NC(=O)[C@H](Cc2ccccc2)NC(=O)[C@H](CC(N)=O)NC(=O)[C@H](CC(N)=O)NC(=O)[C@H](CCSC)NC(=O)[C@H](CO)NC(=O)[C@H](CCC(N)=O)NC(=O)[C@H](CCCNC(=N)N)NC(=O)[C@@H](N)Cc2ccc(O)cc2)C(=O)N[C@@H](CCCNC(=N)N)C(=O)N[C@@H](Cc2ccccc2)C(=O)NCC(=O)N[C@@H]([C@@H](C)O)C(=O)N1)[C@@H](C)O)C(C)C)C(=O)N[C@@H](Cc1ccc(O)cc1)C(=O)N[C@@H](CCC(N)=O)C(=O)N[C@@H](Cc1ccccc1)C(=O)N[C@H](C(=O)N[C@@H](CC(=O)O)C(=O)N[C@@H](CCCCN)C(=O)N[C@@H](CC(=O)O)C(=O)N[C@@H](CCCCN)C(=O)N[C@@H](CC(=O)O)C(=O)N[C@@H](CC(N)=O)C(=O)N[C@H](C(=O)N[C@@H](C)C(=O)N1CCC[C@H]1C(=O)N[C@@H](CCCNC(=N)N)C(=O)N[C@@H](CO)C(=O)N[C@@H](CCCCN)C(=O)N[C@H](C(=O)N[C@@H](CO)C(=O)N1CCC[C@H]1C(=O)N[C@@H](CCC(N)=O)C(=O)NCC(=O)N[C@@H](Cc1ccc(O)cc1)C(N)=O)[C@@H](C)CC)C(C)C)[C@@H](C)O` [AM, adrenomedullin], the figures for the Emax (on RAMP3-CLR (AM2 receptor); in experiment [1]) were 26.7 ± 1.8% and 34.2 ± 3.7%, respectively.

These data come from paper PMC5063977 (The Journal of Biological Chemistry, 2016).
